Measurements reported in ChEMBL document CHEMBL1157189, “S-Ribosylhomocysteine analogues with the carbon-5 and sulfur atoms replaced by a vinyl or (fluoro)vinyl unit” (Bioorg Med Chem, 2008).

System: Bacillus subtilis
Assay: Inhibition of CO2+ substituted Bacillus subtilis S-ribosyl-homocysteinase

Ki: 96 µM
Structure (SMILES): O[C@@H]1C[C@@H](/C=C/F)O[C@@H]1O (mixture of isomers)
